In brackets after ≈: the same amount, converted by molar mass. Read-outs that look alike come from different tables or passages of the source.
Assays:
M. luteus DSM1790 = experiment: MIC determination (broth microdilution); type: cell-based, Micrococcus luteus; conditions: M. luteus DSM1790
Experimental: (§1) 1.1.1 In vitro experiments
(§2) Determination of Minimal inhibitory concentrations (MIC)
(§3) Approved Standard M07-A9.1
(§4) CFU mL-1. […] Albicidin and […]
(§5) and serially diluted in DMSO (100%). […]
(§6) in 0.1 N HCL, respectively.
(§7) One row of each well plate served as a […]
(§8) sterility control (only MHB II-media). […]
(§9) adding 5 µL DMSO to several wells. […]
(§10) for growth inhibition by naked eye.
(§11) Microorganisms and Cell Cultures (DSMZ): […]

E. coli DNA gyrase = target: T1, E. coli DNA gyrase (Escherichia coli, UniProt P0AES4+P0AES6); experiment: E. coli gyrase supercoiling inhibition assay; type: biochemical; parameters: key: ↑: for stronger inhibition; ≈: for equal inhibition; ↓: for diminished inhibition compared to albicidin 1; conditions: constant concentration of 45 nM, compared to albicidin 1
T1 construct: purchased inspiralis Limited, Norwich, UK
T1 sequence (P0AES4 whole entry, one chain of several): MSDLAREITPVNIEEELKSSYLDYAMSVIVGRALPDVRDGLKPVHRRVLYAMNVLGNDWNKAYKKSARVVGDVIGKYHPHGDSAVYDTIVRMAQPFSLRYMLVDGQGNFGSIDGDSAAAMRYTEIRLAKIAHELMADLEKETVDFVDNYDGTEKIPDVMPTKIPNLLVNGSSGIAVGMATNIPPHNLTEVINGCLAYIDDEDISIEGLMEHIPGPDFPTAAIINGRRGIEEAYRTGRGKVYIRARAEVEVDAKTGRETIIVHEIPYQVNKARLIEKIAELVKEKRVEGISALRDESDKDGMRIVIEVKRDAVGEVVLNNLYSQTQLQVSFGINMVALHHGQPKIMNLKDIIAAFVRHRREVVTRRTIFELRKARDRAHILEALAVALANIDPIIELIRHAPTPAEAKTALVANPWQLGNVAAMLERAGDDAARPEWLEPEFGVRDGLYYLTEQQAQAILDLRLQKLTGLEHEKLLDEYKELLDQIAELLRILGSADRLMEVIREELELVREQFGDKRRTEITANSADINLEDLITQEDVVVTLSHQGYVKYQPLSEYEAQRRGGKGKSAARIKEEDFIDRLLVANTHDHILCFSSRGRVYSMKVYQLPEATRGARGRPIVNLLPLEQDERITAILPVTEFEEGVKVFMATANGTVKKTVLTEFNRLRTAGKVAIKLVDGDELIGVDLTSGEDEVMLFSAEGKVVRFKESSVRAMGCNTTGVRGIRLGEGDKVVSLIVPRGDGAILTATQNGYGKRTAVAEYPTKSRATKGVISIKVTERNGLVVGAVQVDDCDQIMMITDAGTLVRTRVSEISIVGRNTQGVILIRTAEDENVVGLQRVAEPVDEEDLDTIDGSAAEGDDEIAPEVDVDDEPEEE
Experimental: Escherichia coli Gyrase Supercoiling Inhibition Assay
loaded on an agarose gel.
2-15. […] Addition of DNA
All derivatives were tested at a concentration of […]

[1] = system: E. coli DSM 1116 + 50% Human Serum; experiment: MIC determination in presence of 50% human serum; type: cell-based; conditions: Escherichia coli, DSM1116; E. coli DSM 1116 + 50% Human Serum; read-out: MIC
Excerpt: This investigation was completed by assessment of the antibacterial activity in presence of human plasma (50%) (Table 1), since high plasma protein binding can severely impair antibacterial activity and thus efficacy.
as §1, §2, §3, §4, §5, §6, §7, §8, §9, §10, §11

S. Typhimurium TA100 = experiment: MIC determination (broth microdilution); type: cell-based, Salmonella typhimurium; conditions: Salmonella enterica; S. Typhimurium TA100; read-out: MIC
Experimental: as §1, §2, §3, §4, §5, §6, §7, §8, §9, §10, §11

B. subtilis DSM 10 = experiment: MIC determination (broth microdilution); type: cell-based; conditions: Bacillus subtilis, DSM10; B. subtilis DSM 10; read-out: MIC
Experimental: as §1, §2, §3, §4, §5, §6, §7, §8, §9, §10, §11

E. coli BW25113 = experiment: MIC determination (broth microdilution); type: cell-based; conditions: Escherichia coli
Experimental: as §1, §2, §3, §4, §5, §6, §7, §8, §9, §10, §11

E. coli DSM 1116 = experiment: MIC determination (broth microdilution); type: cell-based, Escherichia coli; conditions: Escherichia coli, DSM1116; E. coli DSM 1116; read-out: MIC
Experimental: as §1, §2, §3, §4, §5, §6, §7, §8, §9, §10, §11

M. phlei DSM 750 = experiment: MIC determination (broth microdilution); type: cell-based, Mycobacterium phlei; conditions: Mycolicibacterium phlei, DSM750; M. phlei DSM 750; read-out: MIC
Experimental: as §1, §2, §3, §4, §5, §6, §7, §8, §9, §10

[2] = Micrococcus luteus, read-out: MIC

SMILES | MIC (M. luteus DSM1790; [2]) [µg/mL] | E. coli gyrase inhibition (E. coli DNA gyrase) | MIC [1] [µg/mL] | MIC (S. Typhimurium TA100) [µg/mL] | MIC (B. subtilis DSM 10) [µg/mL] | MIC (E. coli BW25113) [µg/mL] | MIC (E. coli DSM 1116) [µg/mL] | MIC (M. phlei DSM 750) [µg/mL] | MIC (M. luteus DSM1790) [µg/mL]
COc1c(NC(=O)c2ccc(NC(=O)c3ccc(NC(=O)[C@H](Cc4c[nH]nn4)NC(=O)c4ccc(NC(=O)/C(C)=C/c5ccc(O)cc5)cn4)cc3)c(OC)c2O)ccc(C(=O)O)c1O [Compound 5] | 0.5 (≈ 0.564 µM) | ↑ | 2 | 0.031 (≈ 0.035 µM) | 0.25 (≈ 0.282 µM) | 0.031 (≈ 0.035 µM) | 0.031 (≈ 0.035 µM) | 4 (≈ 4.52 µM) | –
COc1c(NC(=O)c2ccc(NC(=O)c3ccc(NC(=O)[C@H](Cc4c[nH]nn4)NC(=O)c4ccc(NC(=O)/C(C)=C/c5ccc(O)cc5)nc4)cc3)c(OC)c2O)ccc(C(=O)O)c1O [Compound 6] | 4 (≈ 4.52 µM) | ↓ | 1 | 0.016 (≈ 0.0181 µM) | 0.5 (≈ 0.564 µM) | 0.063 (≈ 0.0711 µM) | 0.016 (≈ 0.0181 µM) | 4 (≈ 4.52 µM) | –
COc1c(NC(=O)c2ccc(NC(=O)c3ccc(NC(=O)[C@H](Cc4c[nH]nn4)NC(=O)c4ccc(NC(=O)/C(C)=C/c5ccc(O)cc5)cc4)cc3)cn2)ccc(C(=O)O)c1O [Compound 9] | 1 (≈ 1.19 µM) | ↓ | ≥ 8 | 0.031 (≈ 0.0369 µM) | 1 (≈ 1.19 µM) | 0.031 (≈ 0.0369 µM) | 0.031 (≈ 0.0369 µM) | 1 (≈ 1.19 µM) | –
COc1c(NC(=O)c2ccc(NC(=O)c3ccc(NC(=O)[C@H](Cc4c[nH]nn4)NC(=O)c4ccc(NC(=O)/C(C)=C/c5ccc(O)cc5)cc4)cc3)nc2)ccc(C(=O)O)c1O [Compound 10] | 32 (≈ 38.1 µM) | ↓ | 2 | 0.016 (≈ 0.0191 µM) | 2 (≈ 2.38 µM) | 0.063 (≈ 0.075 µM) | 0.063 (≈ 0.075 µM) | 2 (≈ 2.38 µM) | 32.0 (≈ 38.1 µM)

Reference: PMC8580050, “Improvement of the antimicrobial potency, pharmacokinetic and pharmacodynamic properties of albicidin by incorporation of nitrogen atoms” (Chemical Science, 2021)
